Experimental data: paper PMC10468883, “Synthesis and Anticancer Activities of Pyrazole–Thiadiazole-Based EGFR Inhibitors” (ACS Omega, 2023)

What was measured:
[1] = tested on: MCF-7 cell line; assay: MTT cytotoxicity assay (24 h), MCF-7 cell line; format: cell-based; settings: for IC50: MTT, 24 h, MCF-7 cell line, means of quartet assays; for SI for MCF-7: selectivity index, NIH3T3 vs MCF-7
Description: (§1) The principle of the MTT test used to determine the metabolic activity of living cells is based on the reduction of […] 3-(4,5-dimethylthiazol-2-yl)-2,5 diphenyltetrazolium salt to the purple-colored formazan product. Thanks to this color change, the cell viability rate can be determined spectrometrically.[33]Table 1 presents the results of the MTT experiment performed with the 24 h procedure using two cancer lines (A549 and MCF-7) and a healthy cell line (NIH3T3). Doxorubicin is used as a reference drug. MTT assays were performed as previously described.[34]−[36]
(§2) Cytotoxicity assays of compounds 6a–6j were performed with the 24 h MTT procedure. […]. […] […]. […] The selectivity indexes of compounds 6d, 6g, and 6j were calculated as 2.3, 7.23, and 5.68, respectively. […] It can be predicted that the side effect and toxic effect profile of compound 6g will be less than that of compounds 6d and 6j.

[2] = tested on: A549 cell line; assay: MTT cytotoxicity assay (24 h), A549 cell line; format: cell-based; settings: for SI for A549: selectivity index, NIH3T3 vs A549
Description: Thanks to this color change, the cell viability rate can be determined spectrometrically.[33]Table 1 presents the results of the MTT experiment performed with the 24 h procedure using two cancer lines (A549 and MCF-7) and a healthy cell line (NIH3T3). Doxorubicin is used as a reference drug. MTT assays were performed as previously described.[34]−[36] Cytotoxicity assays of compounds 6a–6j were performed with the 24 h MTT procedure. […] These compounds include allyl (6d), phenyl (6g), and 4-chlorophenyl (6j) moieties. […] The selectivity indexes of compounds 6d, 6g, and 6j were calculated as 2.3, 7.23, and 5.68, respectively. […] It can be predicted that the side effect and toxic effect profile of compound 6g will be less than that of compounds 6d and 6j.

[3] = tested on: NIH3T3 healthy cell line; assay: MTT cytotoxicity assay (24 h), healthy cell line NIH3T3; format: cell-based; settings: means of quartet assays
Description: as §1, §2

[4] = target: T1, EGFR enzyme (Homo sapiens, UniProt P00533); assay: EGFR Kinase Assay Kit inhibition assay; format: biochemical; settings: in vitro kit method
T1 construct: purchased
T1 sequence (P00533 25-1210): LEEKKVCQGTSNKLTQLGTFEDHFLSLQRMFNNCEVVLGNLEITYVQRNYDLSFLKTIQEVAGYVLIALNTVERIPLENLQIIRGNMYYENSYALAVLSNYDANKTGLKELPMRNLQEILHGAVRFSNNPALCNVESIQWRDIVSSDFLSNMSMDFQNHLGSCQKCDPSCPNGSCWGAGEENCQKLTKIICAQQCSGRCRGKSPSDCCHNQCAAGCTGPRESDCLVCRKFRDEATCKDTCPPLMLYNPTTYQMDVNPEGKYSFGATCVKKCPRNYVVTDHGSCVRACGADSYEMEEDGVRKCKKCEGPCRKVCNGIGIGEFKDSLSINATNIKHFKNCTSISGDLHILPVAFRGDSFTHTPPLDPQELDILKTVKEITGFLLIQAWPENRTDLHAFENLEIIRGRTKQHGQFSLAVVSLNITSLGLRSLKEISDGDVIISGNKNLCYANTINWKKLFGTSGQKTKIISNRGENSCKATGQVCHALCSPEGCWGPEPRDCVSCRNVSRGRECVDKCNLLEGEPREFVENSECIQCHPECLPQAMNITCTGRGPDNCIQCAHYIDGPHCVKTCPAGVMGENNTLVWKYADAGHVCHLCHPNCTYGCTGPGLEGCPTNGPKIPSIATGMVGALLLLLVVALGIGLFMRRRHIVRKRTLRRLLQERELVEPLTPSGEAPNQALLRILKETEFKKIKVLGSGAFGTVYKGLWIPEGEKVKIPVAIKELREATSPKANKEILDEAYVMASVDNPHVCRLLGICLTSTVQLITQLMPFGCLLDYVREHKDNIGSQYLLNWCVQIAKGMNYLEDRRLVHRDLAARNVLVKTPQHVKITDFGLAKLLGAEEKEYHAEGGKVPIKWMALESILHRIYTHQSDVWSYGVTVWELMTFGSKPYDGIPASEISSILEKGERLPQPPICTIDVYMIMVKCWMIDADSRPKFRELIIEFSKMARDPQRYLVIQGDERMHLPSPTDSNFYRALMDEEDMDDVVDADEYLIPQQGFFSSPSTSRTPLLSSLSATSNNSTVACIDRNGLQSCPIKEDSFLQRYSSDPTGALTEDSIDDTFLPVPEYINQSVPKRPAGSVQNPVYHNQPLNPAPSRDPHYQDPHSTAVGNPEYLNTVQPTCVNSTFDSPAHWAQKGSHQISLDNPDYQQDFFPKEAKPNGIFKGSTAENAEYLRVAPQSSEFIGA
Description: The EGFR Kinase Assay Kit (available from ref ([38])) was used for the EGFR inhibition. The kit protocol was followed, and the experiment was carried out in vitro.
EGFR kinase, which belongs to the ErbB family of tyrosine kinases, is known to regulate the signaling pathways of cell survival, migration, proliferation, differentiation, and adhesion.[52] Inhibition of this member of the tyrosine kinase family, which is a new approach in cancer chemotherapy, is important.

[5] = tested on: A549 cells; assay: Mitochondrial membrane potential (MMP) by flow cytometry, JC-1 dye; format: cell-based; settings: substance at IC50 concentration, 24 h incubation
Description: In the first step, A549 cells seeded in 25 mL flasks were incubated for 24 h in a 5% CO2 incubator. […] Cells were collected and centrifuged in line with the instructions in the kit at the conclusion of this period. The upper part was removed, JC-1 dye was added, and the mixture was incubated for 10–15 min at 37 °C. The CytoFLEX flow cytometer (Beckman Coulter Life Sciences, USA) and CytExpert for CytoFLEX Acquisition and Analysis Software Version 2.2.0.97 were used to read it after two washings with washing solution at the conclusion of the period.
Both the inhibitory compound and the reference drug were administered at IC50 concentrations. After a 24 h incubation period (5% CO2), mitochondrial membrane potential was determined by flow cytometry using JC-1 dye.

[6] = Homo sapiens, A549, 24 h, MTT, 24 h, A549 cell line, means of quartet assays
[7] = MTT, 24 h, A549 cell line, means of quartet assays

IC50 [4] [µM] | SMILES | IC50 ([1]; Homo sapiens, MCF7, 24 h) [µM] | IC50 [1] [µM] | SI for MCF-7 [1] | IC50 [2, 6] [µM] | IC50 [2, 7] [µM] | SI for A549 [2] | IC50 ([3]; Mus musculus, NIH3T3, 24 h) [µM] | IC50 [3] [µM] | mitochondrial membrane potential (P3) [5] [%] | IC50 A549 [2, 7]
 | C=CCNc1nnc(SCC(=O)N2N=C(c3ccccc3)CC2c2ccc([N+](=O)[O-])cc2)s1 (stereo not drawn) [Compound 6d, 2-((5-(Allylamino)-1,3,4-thiadiazol-2-yl)thio)-1-(5-(4-nitrophenyl)-3-phenyl-4,5-dihydro-1H-pyrazol-1-yl)ethan-1-one] | 35.7 ± 2.24 | 35.7 ± 2.24 | 0.33 | 5.18 ± 0.164 | 5.18 ± 0.16 | 2.3 | 11.9 ± 0.486 | 11.9 ± 0.49 |  | 
 | COc1ccc(Nc2nnc(SCC(=O)N3N=C(c4ccccc4)CC3c3ccc([N+](=O)[O-])cc3)s2)cc1 (stereo not drawn) [Compound 6i, 2-((5-((4-Methoxyphenyl)amino)-1,3,4-thiadiazol-2-yl)thio)-1-(5-(4-nitrophenyl)-3-phenyl-4,5-dihydro-1H-pyrazol-1-yl)ethan-1-one] | > 100 |  |  | 16.6 ± 0.21 |  | >6.01 | > 100 |  |  | 
 | CC(C)Nc1nnc(SCC(=O)N2N=C(c3ccccc3)CC2c2ccc([N+](=O)[O-])cc2)s1 (stereo not drawn) [Compound 6c, 2-((5-(Isopropylamino)-1,3,4-thiadiazol-2-yl)thio)-1-(5-(4-nitrophenyl)-3-phenyl-4,5-dihydro-1H-pyrazol-1-yl)ethan-1-one] | > 100 |  | <0.33 | 27.9 ± 1.28 |  | 1.19 | 33.2 ± 2.37 |  |  | 
 | Cc1ccc(Nc2nnc(SCC(=O)N3N=C(c4ccccc4)CC3c3ccc([N+](=O)[O-])cc3)s2)cc1 (stereo not drawn) [Compound 6h, 1-(5-(4-Nitrophenyl)-3-phenyl-4,5-dihydro-1H-pyrazol-1-yl)-2-((5-(p-tolylamino)-1,3,4-thiadiazol-2-yl)thio)ethan-1-one] | 92.6 ± 1.89 |  | >1.08 | 29.1 ± 1.01 |  | >3.44 | > 100 |  |  | 
 | CCNc1nnc(SCC(=O)N2N=C(c3ccccc3)CC2c2ccc([N+](=O)[O-])cc2)s1 (stereo not drawn) [Compound 6a, 2-((5-(Ethylamino)-1,3,4-thiadiazol-2-yl)thio)-1-(5-(4-nitrophenyl)-3-phenyl-4,5-dihydro-1H-pyrazol-1-yl)ethan-1-one] | > 100 |  | <0.87 | 13.9 ± 0.25 |  | 6.24 | 86.7 ± 4.07 |  |  | 
0.024 ± 0.002 | O=C(CSc1nnc(Nc2ccccc2)s1)N1N=C(c2ccccc2)CC1c1ccc([N+](=O)[O-])cc1 (stereo not drawn) [Compound 6g, 1-(5-(4-Nitrophenyl)-3-phenyl-4,5-dihydro-1H-pyrazol-1-yl)-2-((5-(phenylamino)-1,3,4-thiadiazol-2-yl)thio)ethan-1-one] | 15.93 ± 0.054 | 15.93 ± 0.05 | 0.70 |  |  | 7.22 | 11.1 ± 0.205 | 11.1 ± 0.21 | 80.93 | 
 | CCCNc1nnc(SCC(=O)N2N=C(c3ccccc3)CC2c2ccc([N+](=O)[O-])cc2)s1 (stereo not drawn) [Compound 6b, 1-(5-(4-Nitrophenyl)-3-phenyl-4,5-dihydro-1H-pyrazol-1-yl)-2-((5-(propylamino)-1,3,4-thiadiazol-2-yl)thio)ethan-1-one] | 63.4 ± 2.09 |  |  | 15.8 ± 0.75 |  |  | 47.2 ± 4.53 |  |  | 
 | O=C(CSc1nnc(NC2CCCCC2)s1)N1N=C(c2ccccc2)CC1c1ccc([N+](=O)[O-])cc1 (stereo not drawn) [Compound 6f, 2-((5-(Cyclohexylamino)-1,3,4-thiadiazol-2-yl)thio)-1-(5-(4-nitrophenyl)-3-phenyl-4,5-dihydro-1H-pyrazol-1-yl)ethan-1-one] | > 100 |  | <0.61 | > 100 |  | <0.61 | 60.5 ± 3.72 |  |  | no activity
 | O=C(CSc1nnc(Nc2ccc(Cl)cc2)s1)N1N=C(c2ccccc2)CC1c1ccc([N+](=O)[O-])cc1 (stereo not drawn) [Compound 6j, 2-((5-((4-Chlorophenyl)amino)-1,3,4-thiadiazol-2-yl)thio)-1-(5-(4-nitrophenyl)-3-phenyl-4,5-dihydro-1H-pyrazol-1-yl)ethan-1-one] | 67.2 ± 3.63 | 67.2 ± 3.63 | 0.72 | 8.49 ± 0.667 | 8.49 ± 0.67 | 5.68 | 48.3 ± 1.72 |  |  | 
 | COc1cccc2c1C(=O)c1c(O)c3c(c(O)c1C2=O)C[C@@](O)(C(=O)CO)C[C@@H]3O[C@H]1C[C@H](N)[C@H](O)[C@H](C)O1 [doxorubicin, reference compound] | 1.59 ± 0.1 |  | >629.33 | 2.67 ± 0.12 |  | >374.95 | > 1000 |  | 30.27 | 
